Data: patent publication US5556744A, “Methods and compositions for diagnosing and treating certain HIV infected patients” (The Trustees of the University of Pennsylvania, priority 1994, dated 1996)

Tested on: maternal HIV+ sera (antibodies)
Assay: RIA / ELISA binding of maternal HIV+ sera to gp120 and gp41 peptides (Example 3)
Set-up: species or system human
Experimental: Radioimmunoassay (RIA) and enzyme-linked immunosorbent assay (ELISA) were performed by standard methodologies [E. Engvall, Meth. Immunol., 70:419-439 (1980); S. K. Pierce et al, J. Exp. Med., 144:1254-1262 (1976)]. Peptides were dissolved in 0.05M carbonate-bicarbonate buffer (pH 9.6) at a concentration of 10 μg/ml. Fifty μl (500 ng) of the peptides were immobilized in 96 well polyvinylchloride plates (Dynatech Laboratories, Inc.) overnight at 4° C. Plates were washed and non-specific sites were blocked with PBS containing 1% BSA overnight at 4° C.
Dilutions of HIV positive maternal sera were made in blocking buffer at dilutions of 1:50 and 1:500 and incubated in peptide coated plates overnight at 4° C. Plates were washed with PBS and incubated with 75,000 cpm of ^125 I-labelled goat anti-human IgG. The antibody was iodinated by a chloramine T method [W. V. Williams et al, Proc. Natl. Acad. Sci. USA, 85:6488-6492 (1988)]. Plates were washed, dried and counted in a gamma counter to measure specific binding. Normal human serum (i.e., HIV seronegative) was used as a control.
Alternatively, ELISA assays were performed in polystyrene plates (Dynatech Laboratories, Inc) in which 0.05% Tween 20 (Sigma Chemical Co.) was included in the washing, blocking and dilution buffers. The secondary antibody used was goat […] Ig conjugated to horseradish peroxidase (HRP) (Sigma Chemical Co). The substrate used for color development was 3,3',5,5' tetramethyl-benzidine dihydrochloride (TMB) (Sigma Chemical Co). Absorbance of samples was measured in a Dynatech MR5000 (Dynatech Laboratories, Inc.) plate reader and expressed as an optical density at wavelength of 450 nm (OD450).
The following key is used for the designation of specific binding of the maternal sera samples to the peptides: The minus sign, -, is equivalent to the specific OD450 or cpm of sera sample binding to peptide divided by the specific OD450 or cpm of NHS sample binding to peptide, which value is less than 2. The plus sign, +, is equivalent to the specific OD450 or cpm of sera sample binding to peptide divided by the specific OD450 or cpm of NHS sample binding to peptide, which value is between 2 to 3.
Specific binding is defined as the difference between the OD450 or cpm of sera to wells with peptide and the OD450 or cpm of sera to wells without peptide.
Comparisons of number of peptides which bound maternal serum samples were made between the transmission group and the nontransmission group. The data was analyzed using the unpaired student's test. For the determination of differences in the binding of specific peptides between transmission and non-transmission groups, the Spearman's rank-order correlation test was performed.

[1] = Serum No. 1, Non-Transmission Group
[2] = Serum No. 2, Non-Transmission Group
[3] = Serum No. 3, Non-Transmission Group
[4] = Serum No. 4, Transmission Group
[5] = Serum No. 5, Transmission Group
[6] = Serum No. 6, Non-Transmission Group
[7] = Serum No. 7, Non-Transmission Group
[8] = Serum No. 8, Non-Transmission Group
[9] = Serum No. 9, Non-Transmission Group
[10] = Serum No. 10, Transmission Group
[11] = Serum No. 11, Non-Transmission Group
[12] = Serum No. 12, Non-Transmission Group
[13] = Serum No. 13, Transmission Group
[14] = Serum No. 14, Transmission Group
[15] = Serum No. 15, Transmission Group
[16] = Serum No. 16, Non-Transmission Group
[17] = Serum No. 17, Non-Transmission Group
[18] = Serum No. 18, Non-Transmission Group
[19] = Serum No. 19, Transmission Group
[20] = Serum No. 20, Non-Transmission Group

Sequence	Binding of maternal HIV+ serum to peptide (sera/NHS ratio) [1]	Binding of maternal HIV+ serum to peptide (sera/NHS ratio) [2]	Binding of maternal HIV+ serum to peptide (sera/NHS ratio) [3]	Binding of maternal HIV+ serum to peptide (sera/NHS ratio) [4]	Binding of maternal HIV+ serum to peptide (sera/NHS ratio) [5]	Binding of maternal HIV+ serum to peptide (sera/NHS ratio) [6]	Binding of maternal HIV+ serum to peptide (sera/NHS ratio) [7]	Binding of maternal HIV+ serum to peptide (sera/NHS ratio) [8]	Binding of maternal HIV+ serum to peptide (sera/NHS ratio) [9]	Binding of maternal HIV+ serum to peptide (sera/NHS ratio) [10]	Binding of maternal HIV+ serum to peptide (sera/NHS ratio) [11]	Binding of maternal HIV+ serum to peptide (sera/NHS ratio) [12]	Binding of maternal HIV+ serum to peptide (sera/NHS ratio) [13]	Binding of maternal HIV+ serum to peptide (sera/NHS ratio) [14]	Binding of maternal HIV+ serum to peptide (sera/NHS ratio) [15]	Binding of maternal HIV+ serum to peptide (sera/NHS ratio) [16]	Binding of maternal HIV+ serum to peptide (sera/NHS ratio) [17]	Binding of maternal HIV+ serum to peptide (sera/NHS ratio) [18]	Binding of maternal HIV+ serum to peptide (sera/NHS ratio) [19]	Binding of maternal HIV+ serum to peptide (sera/NHS ratio) [20]	other results
VTRIVELLGRRGWEALKYWW [Peptide 57]	- (specific OD450 or cpm of sera sample binding to peptide divided by the specific OD450 or cpm of NHS sample binding to peptide, which value is less than 2)	- (specific OD450 or cpm of sera sample binding to peptide divided by the specific OD450 or cpm of NHS sample binding to peptide, which value is less than 2)	- (specific OD450 or cpm of sera sample binding to peptide divided by the specific OD450 or cpm of NHS sample binding to peptide, which value is less than 2)	- (specific OD450 or cpm of sera sample binding to peptide divided by the specific OD450 or cpm of NHS sample binding to peptide, which value is less than 2)	- (specific OD450 or cpm of sera sample binding to peptide divided by the specific OD450 or cpm of NHS sample binding to peptide, which value is less than 2)	- (specific OD450 or cpm of sera sample binding to peptide divided by the specific OD450 or cpm of NHS sample binding to peptide, which value is less than 2)	- (specific OD450 or cpm of sera sample binding to peptide divided by the specific OD450 or cpm of NHS sample binding to peptide, which value is less than 2)	++ (which value is greater than 3)	- (specific OD450 or cpm of sera sample binding to peptide divided by the specific OD450 or cpm of NHS sample binding to peptide, which value is less than 2)	- (specific OD450 or cpm of sera sample binding to peptide divided by the specific OD450 or cpm of NHS sample binding to peptide, which value is less than 2)	- (specific OD450 or cpm of sera sample binding to peptide divided by the specific OD450 or cpm of NHS sample binding to peptide, which value is less than 2)	- (specific OD450 or cpm of sera sample binding to peptide divided by the specific OD450 or cpm of NHS sample binding to peptide, which value is less than 2)	- (specific OD450 or cpm of sera sample binding to peptide divided by the specific OD450 or cpm of NHS sample binding to peptide, which value is less than 2)	- (specific OD450 or cpm of sera sample binding to peptide divided by the specific OD450 or cpm of NHS sample binding to peptide, which value is less than 2)	- (specific OD450 or cpm of sera sample binding to peptide divided by the specific OD450 or cpm of NHS sample binding to peptide, which value is less than 2)	- (specific OD450 or cpm of sera sample binding to peptide divided by the specific OD450 or cpm of NHS sample binding to peptide, which value is less than 2)	- (specific OD450 or cpm of sera sample binding to peptide divided by the specific OD450 or cpm of NHS sample binding to peptide, which value is less than 2)	- (specific OD450 or cpm of sera sample binding to peptide divided by the specific OD450 or cpm of NHS sample binding to peptide, which value is less than 2)	- (specific OD450 or cpm of sera sample binding to peptide divided by the specific OD450 or cpm of NHS sample binding to peptide, which value is less than 2)	+ (which value is between 2 to 3)	
YDTEVHNVWATHACV [Peptide 94]	++ (which value is greater than 3)	- (specific OD450 or cpm of sera sample binding to peptide divided by the specific OD450 or cpm of NHS sample binding to peptide, which value is less than 2)	++ (which value is greater than 3)	- (specific OD450 or cpm of sera sample binding to peptide divided by the specific OD450 or cpm of NHS sample binding to peptide, which value is less than 2)	- (specific OD450 or cpm of sera sample binding to peptide divided by the specific OD450 or cpm of NHS sample binding to peptide, which value is less than 2)	- (specific OD450 or cpm of sera sample binding to peptide divided by the specific OD450 or cpm of NHS sample binding to peptide, which value is less than 2)	- (specific OD450 or cpm of sera sample binding to peptide divided by the specific OD450 or cpm of NHS sample binding to peptide, which value is less than 2)	- (specific OD450 or cpm of sera sample binding to peptide divided by the specific OD450 or cpm of NHS sample binding to peptide, which value is less than 2)	- (specific OD450 or cpm of sera sample binding to peptide divided by the specific OD450 or cpm of NHS sample binding to peptide, which value is less than 2)	- (specific OD450 or cpm of sera sample binding to peptide divided by the specific OD450 or cpm of NHS sample binding to peptide, which value is less than 2)	- (specific OD450 or cpm of sera sample binding to peptide divided by the specific OD450 or cpm of NHS sample binding to peptide, which value is less than 2)	- (specific OD450 or cpm of sera sample binding to peptide divided by the specific OD450 or cpm of NHS sample binding to peptide, which value is less than 2)	- (specific OD450 or cpm of sera sample binding to peptide divided by the specific OD450 or cpm of NHS sample binding to peptide, which value is less than 2)	- (specific OD450 or cpm of sera sample binding to peptide divided by the specific OD450 or cpm of NHS sample binding to peptide, which value is less than 2)	- (specific OD450 or cpm of sera sample binding to peptide divided by the specific OD450 or cpm of NHS sample binding to peptide, which value is less than 2)	- (specific OD450 or cpm of sera sample binding to peptide divided by the specific OD450 or cpm of NHS sample binding to peptide, which value is less than 2)	- (specific OD450 or cpm of sera sample binding to peptide divided by the specific OD450 or cpm of NHS sample binding to peptide, which value is less than 2)	- (specific OD450 or cpm of sera sample binding to peptide divided by the specific OD450 or cpm of NHS sample binding to peptide, which value is less than 2)	- (specific OD450 or cpm of sera sample binding to peptide divided by the specific OD450 or cpm of NHS sample binding to peptide, which value is less than 2)	- (specific OD450 or cpm of sera sample binding to peptide divided by the specific OD450 or cpm of NHS sample binding to peptide, which value is less than 2)	Number of maternal sera binding to peptide (20 maternal sera): two; Binding of maternal sera to peptide (in words) (Example 3): Several maternal serum samples had reactivity; Number of binding maternal sera from the transmission group (vertical transmission group (7 sera)): neither
